Measured values reported in patent US12358954B2, “Capsid-modified rAAV vector compositions and methods therefor” (priority 2012, dated 2025).
“Also recorded” adds a separate entry of the source.

Tests used:
HGFR kinase = target: T1, HGFR kinase (Homo sapiens, UniProt P08581); test: Western blot of HGFR phosphorylation and downstream signaling; assay type: cell-based; details: T47D+hHGFR cells
T1 construct: expressed in transfected cells; host or cells: T47D human breast cancer cells stably transfected with a hHGFR expression plasmid (T47D+hHGFR); parental T47D as control
T1 sequence (P08581 25-1390): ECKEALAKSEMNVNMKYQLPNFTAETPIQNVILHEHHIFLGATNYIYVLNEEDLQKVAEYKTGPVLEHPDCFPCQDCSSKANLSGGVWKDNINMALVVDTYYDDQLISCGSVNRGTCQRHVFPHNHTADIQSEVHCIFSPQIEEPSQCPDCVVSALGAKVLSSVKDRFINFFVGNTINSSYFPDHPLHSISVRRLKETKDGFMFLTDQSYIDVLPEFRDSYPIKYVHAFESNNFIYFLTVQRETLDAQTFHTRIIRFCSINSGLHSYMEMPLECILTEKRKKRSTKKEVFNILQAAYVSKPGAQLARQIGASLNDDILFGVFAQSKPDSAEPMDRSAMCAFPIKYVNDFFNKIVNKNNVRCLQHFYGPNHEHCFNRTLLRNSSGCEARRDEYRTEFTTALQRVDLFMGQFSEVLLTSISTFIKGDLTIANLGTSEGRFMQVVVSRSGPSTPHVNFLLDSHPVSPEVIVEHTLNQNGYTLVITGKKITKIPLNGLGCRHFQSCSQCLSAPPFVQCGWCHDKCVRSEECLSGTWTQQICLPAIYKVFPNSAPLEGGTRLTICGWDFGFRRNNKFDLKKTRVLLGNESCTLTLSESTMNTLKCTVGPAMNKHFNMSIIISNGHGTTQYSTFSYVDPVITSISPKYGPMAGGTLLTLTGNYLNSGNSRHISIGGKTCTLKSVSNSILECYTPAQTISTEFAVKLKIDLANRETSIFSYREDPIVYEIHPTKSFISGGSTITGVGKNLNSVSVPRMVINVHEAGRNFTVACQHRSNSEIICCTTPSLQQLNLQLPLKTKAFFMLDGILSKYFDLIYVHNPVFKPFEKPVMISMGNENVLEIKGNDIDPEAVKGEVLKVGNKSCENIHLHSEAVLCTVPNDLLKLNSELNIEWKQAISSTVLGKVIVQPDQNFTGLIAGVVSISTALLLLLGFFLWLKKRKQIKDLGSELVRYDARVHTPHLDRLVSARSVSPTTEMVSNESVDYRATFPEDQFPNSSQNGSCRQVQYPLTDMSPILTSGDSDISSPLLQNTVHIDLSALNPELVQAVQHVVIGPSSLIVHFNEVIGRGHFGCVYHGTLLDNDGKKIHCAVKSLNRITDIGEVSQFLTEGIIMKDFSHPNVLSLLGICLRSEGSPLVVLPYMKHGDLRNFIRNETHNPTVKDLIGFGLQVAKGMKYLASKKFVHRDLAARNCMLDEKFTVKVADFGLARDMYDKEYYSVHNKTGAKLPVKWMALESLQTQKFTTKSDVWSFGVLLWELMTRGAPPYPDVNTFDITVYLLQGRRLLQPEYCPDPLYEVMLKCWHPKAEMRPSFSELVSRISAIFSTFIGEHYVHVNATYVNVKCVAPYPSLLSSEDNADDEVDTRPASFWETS
Method: Cells were harvested and disrupted in a radio-immunoprecipitation assay (RIPA) lysis buffer (50 mM Tris-HCl, pH 8.0, 150 mM NaCl, 0.1% SDS, 1% NP-40, 0.25% sodium deoxycholate and 1 mM EDTA with protease inhibitor cocktail, 1 mM NaF and 1 mM Na3VO4). Total protein concentration was measured using a Bradford reagent (Bio-Rad) and equal amounts (50 μg) of whole cell lysates were resolved by SDS-PAGE. After electrophoresis, samples were electro-transferred to a nitrocellulose membrane (Bio-Rad), probed with relevant primary antibodies at 4° C. overnight, incubated with horseradish peroxidase-conjugated secondary antibodies (Jackson ImmunoResearch, West Grove, Pa., USA), and detected with an enhanced chemi-luminescence substrate (Amersham). […]
To examine whether inhibition of the HGFR kinase led to alterations in the phosphorylation status of specific cellular proteins involved in the downstream signaling pathway total and phosphorylation levels of the HGFR protein in both T47D and T47D+hHGFR lysates were determined following a 2-hr drug-incubation period. Activation of signaling pathways downstream from HGFR kinase, ERK1/2 and Akt, were analyzed using phosphorylation-specific antibodies.

T47D cells = test: AAV3 vector transduction of T47D cells; assay type: cell-based, human; details: 1 μM, 2 hr; 10,000 vg/cell
Excerpt: (§1) Cell Lines and Cultures. Human cervical cancer (HeLa) and hepatocellular carcinoma (Huh7) cell lines were purchased from American Type Culture Collection (Manassas, Va., USA), and maintained in complete DMEM medium (Mediatech, Inc., Manassas, Va., USA) supplemented with 10% heat-inactivated fetal bovine serum (FBS, Sigma-Aldrich Co.), 1% penicillin and streptomycin (P/S, Lonza, Inc.). A newly established human hepatoblastoma (Hep293TT) cell line (Chen et al., 2009) was maintained in complete RPMI medium 1640 (Invitrogen, Inc.) supplemented with 15% heat-inactivated FBS (Sigma-Aldrich Co.), 1% penicillin and streptomycin (P/S, Lonza, Inc.). Cells were grown as adherent cultures in a humidified atmosphere at 37° C. in 5% CO2 and were sub-cultured after treatment with trypsin-versene mixture (Lonza, Inc.) for 2-5 min at room temperature, washed and re-suspended in complete medium. […]
(§2) Human HGFR is required for AAV3 infectivity. […] Equivalent numbers of T47D and T47D+hHGFR cells were transduced with various multiplicities-of-infection (MOI) of self-complementary (sc) AAV3-CBAp-EGFP vectors under identical conditions and transgene expression was determined 72 hr post-transduction.

T47D+hHGFR cells = test: AAV vector transduction of T47D+hHGFR cells; assay type: cell-based, human
Excerpt: as §1, §2

HeLa cells [1] = test: AAV-EGFP transduction of HeLa cells in the presence of NF-κB modulators; assay type: cell-based, human; details: HeLa, scAAV-EGFP
Method: (§3) Recombinant AAV Vector Transduction Assays in Vitro. Optimal concentration of NF-κB-modulating compounds was determined by a cell viability assay with tenfold-dilutions from the IC50 or were used as described previously (Wu and Miyamoto, 2008; Kumar et al., 2008). VP16 or Bay11 (10 or 5 μM, final concentration), and PDTC (50 or 25 μM final concentration) were used either alone or in activator/inhibitor combinations. For transduction experiments, approximately 1×10^5 HeLa cells were either pre-treated with these compounds 24 hrs prior to vector infection. Cells were transduced with 500 or 2,000 vector genomes (vgs) per cell of recombinant WT-AAV or TM-AAV vectors encoding the EGFP transgene as described previously (Markusic et al., 2010). After 7 days of culture, primary human dendritic cells were transduced with AAV vectors at 2000 vgs/cell and incubated for 48 hrs. Transgene expression was assessed as total area of green fluorescence (pixel^2) per visual field (mean±SD), or by flow cytometry. Analysis of variance (ANOVA) was used to compare between test results and the control and they were determined to be statistically significant.

HeLa cells [2] = test: scAAV2 transduction of HeLa cells with MG132 or Tyr23 (positive control); assay type: cell-based, human; details: MG132 5 μM; Tyr23 200 μM
Method: (§4) AAV Vector Transduction Assays. Huh7 or HeLa cells were seeded in 96-well plates at a concentration of 5,000 cells per well in complete DMEM medium. AAV infections were performed in serum- and antibiotic-free DMEM medium. Hep293TT cells were seeded in 96-well plates at a concentration of 10,000 cells per well in complete RPMI medium. The infections were performed in serum- and antibiotic-free RPMI medium. The expression of EGFP was analyzed by direct fluorescence imaging 72 hrs' post-transduction.
Proteasome Inhibitors Increase the Transduction Efficiency of AAV3 Vectors. […] To evaluate whether MG132 can also improve AAV3 trafficking in target cells, Huh7, a well-established human hepatocellular carcinoma cell line (Nakabayashi et al., 1982), and Hep293TT, a recently established human hepatoblastoma cell line (Chen et al., 2009), were either mock-treated or treated with increasing concentrations of MG132. […] Transgene expression was determined by fluorescence microscopy 72 hrs post-transduction.
Previous studies have also shown that inhibition of EGFR-PTK signaling by Tyrphostin 23 (Tyr23), a specific inhibitor of EGFR-PTK (May et al., 1998), modulates the Ub/proteasome pathway, which in turn, facilitates intracellular trafficking and transgene expression mediated by AAV2 vectors (Zhong et al., 2007). […] Transgene expression was determined 72 hr post-transduction.

Hep293TT cells = test: AAV3 vector transduction assay in Hep293TT cells; assay type: cell-based, human
Method: as §4

HeLa cells [3] = test: Recombinant AAV2 vector transduction assay in vitro (EGFP imaging); assay type: cell-based, human
Method: Recombinant AAV2 Vector Transduction Assays in Vitro. Approximately 1×10^5 HeLa cells were used for transductions with recombinant AAV2 vectors. The transduction efficiency was measured 48-hr post-transduction by EGFP imaging using fluorescence microscopy. Images from three to five visual fields were analyzed quantitatively by ImageJ analysis software (NIH, Bethesda, Md., USA). Transgene expression was assessed as total area of green fluorescence (pixel^2) per visual field (mean±SD). Analysis of variance (ANOVA) was used to compare between test results and the control and they were determined to be statistically significant.
The transduction efficiency of each of the tyrosine-mutant vectors was analyzed and compared with the WT scAAV2-EGFP vector in HeLa cells in vitro under identical conditions. […] Specifically, the transduction efficiency of Y444F, Y500F, Y730F vectors was ˜8- to 11-fold higher than the WT vector.
In a second study, HeLa cells, either mock-treated or treated with Tyr23, a specific inhibitor of EGFR-PTK, or MG132, a proteasome inhibitor, both known to increase the transduction efficiency of AAV vectors, were mock-infected or infected with the WT or Y730F scAAV2-EGFP vectors.

[4] = tested on: non-canonical NF-κB pathway (p100, p52); test: Western blot of NF-κB pathway components in HeLa cells; assay type: cell-based, human; details: in the presence of VP16
Excerpt: Western Blot Analyses. Homogenized lysates of the cell pellets from ˜2×10^6 HeLa cells or DCs, mock or pre-treated with the optimal concentration of NF-κB activators or inhibitors were used for sample preparation. Whole cell proteins were isolated using the RIPA lysis buffer (Sigma-Aldrich Co.) and cytoplasmic and nuclear proteins were extracted using a commercial kit (NE-PER Extraction Reagent Kit, Pierce Biotech, Rockford, Ill., USA) as per the manufacturer's protocol in the presence of a protease inhibitor cocktail (Halt™ Protease Inhibitor Cocktail Kit, Pierce Biotech). The protein extracts were boiled for 5 min under reducing conditions [SDS-sample buffer containing 62.5 mM Tris-HCl (pH 6.8 at 25° C.), 2% wt./vol. SDS, 10% glycerol, 50 mM DTT, 0.01% wt./vol. bromo-phenol blue (Cell Signaling Technology, Inc.)] and stored at −86° C. until further analysis. Equal volumes of samples were run on 4-15% SDS-PAGE (Bio-Rad, Hercules, Calif., USA). […] The intensity of the protein bands was measured with Adobe Photoshop CS3 Software® and normalized to proteins levels from the housekeeping gene products used as loading controls.

[5] = tested on: primary human dendritic cells; test: FACS analyses of markers of maturation (CD83, CD86) of primary human dendritic cells; assay type: cell-based
Method: Cells, Antibodies and Chemicals. HeLa cells were obtained from the American Type Culture Collection (Rockville, Md., USA) and maintained as monolayer cultures in Iscove's-modified Dulbecco's medium (IMDM, Invitrogen, Inc., Carlsbad, Calif., USA) supplemented with 10% newborn calf serum (NCS) (Lonza, Inc., Basel, SWITZERLAND) and antibiotics. Leukapheresis-derived PBMCs were resuspended in serum-free AIM-V medium (Lonza, Inc.) and semi-adherent cell fractions were incubated in serum-free AIM-V medium supplemented with recombinant human IL-4 (500 U/mL) and GM-CSF (800 U/mL) (R&D Systems, MN, USA). Cells were treated with NF-κB modulators ([…]), and cytokines cocktail including 10 ng/mL TNF-α, 10 ng/mL IL-1, 10 ng/mL IL-6, […] (R&D Systems) for 20 hr. Cells were harvested, characterized to ensure they met the typical phenotype of mature DCs (CD83, RPE, murine IgG1, CD86, FITC, murine IgG1; Invitrogen, Inc.). All primary and secondary antibodies were purchased from Cell Signaling Technology, Inc. (Danvers, Mass., USA) or Santa Cruz Biotechnology, Inc (Santa Cruz, Calif., USA). NF-kB activators [Etoposide (VP16), Aphidicolin, Hydroxyurea (HU)] and NF-kB inhibitors [Bay11-7082 (Bay11), Pyrrolidine dithiocarbamate (PDTC)] were purchased from Sigma-Aldrich Co. (St. Louis, Mo., USA). These compounds were re-suspended in either DMSO (Sigma-Aldrich Co.) or in sterile, DNAase-, RNAase-free water (Invitrogen, Inc.) as per the manufacturer's instructions.

[6] = tested on: primary human dendritic cells; test: AAV-EGFP transduction of primary human dendritic cells with NF-κB modulators (flow cytometry); assay type: cell-based
Method: as §3
Cells, Antibodies and Chemicals. […]

K562 cells = test: AAV6 transduction of K562 cells after enzyme / inhibitor treatment; assay type: cell-based, human
Excerpt: More recently, Denard et al. reported that galectin-3-binding protein in human sera agglutinates AAV6 vectors, which results in decreased transduction efficiency of these vectors. […] The identity of the putative receptor for AAV6 vectors in human CD34^+ cells remains elusive, and additional studies are warranted. […] The implication is that AAV6 uses a protein rather than a lipid on K562 cells for binding and entry into these cells. In addition, because AAV6 is known to have evolved from recombination between AAV1 and AAV2, and because AAV2 uses heparan sulfateproteoglycan (HSPG) as the primary cellular receptor, the level of HSPG expression on K562 cells surface was examined by FACS. […] The effect of inhibitors of O-linked and N-linked glycosylation was also evaluated on the transduction efficiency of AAV6 vectors in K562 cells.

[7] = Mature DCs + AAV + Cytokines + modulator

`CCOc1ccn(-c2ccc(F)cc2)c(=O)c1C(=O)Nc1ccc(Oc2ccnc(N)c2Cl)c(F)c1` [BMS-777607, N-(4-(2-amino-3-chloropyridin-4-yloxy)-3-fluorophenyl)-4-ethoxy-1-(4-fluorophenyl)-2-oxo-1,2-dihydropyridine-3-carboxamide] was tested, and the “expression of phosphorylated AKT and ERK1/2” value (HGFR kinase) was “no effect”, the “phosphorylation of HGFR” value (HGFR kinase; 2-hr incubation) was “completely blocked” and the AAV3 infectivity (T47D cells) was “no effect”. For the same compound, the AAV3 infectivity (T47D+hHGFR cells; 1 μM, 2 hr, 10,000 vg/cell) was “significantly enhanced”.

In the case of `S=C(S)N1CCCC1` [PDTC, Pyrrolidine dithiocarbamate], the “AAV vector-mediated EGFP expression, fold augmentation” value (HeLa cells [1]) is reported as “had no effect; also recorded: no noticeable effect”.

With `N#CC(C#N)=Cc1ccc(O)c(O)c1` [Tyr23, Tyrphostin 23] the “transduction efficiency of scAAV2 vectors after pretreatment” value (HeLa cells [2]) was “significant increase”, the “amounts of internalized viral DNA in presence or absence of inhibitor” value (Hep293TT cells) was “no significant difference” and the “transduction efficiency of scAAV3 vectors after treatment” value (Hep293TT cells; 2 hr treatment) was “significant increase”. The “increase in transduction efficiency of WT scAAV2-EGFP by pretreatment” value (HeLa cells [3]) was about 9 fold.

For `COc1cc([C@@H]2c3cc4c(cc3[C@@H](O[C@@H]3O[C@@H]5CO[C@@H](C)O[C@H]5[C@H](O)[C@H]3O)[C@H]3COC(=O)[C@H]23)OCO4)cc(OC)c1O` [VP16, Etoposide], the “increase in cytosolic p100 and nuclear p52” value [4] was 3- to 6 fold, the “maturation of DCs (CD83, CD86)” value [5] was “not able to induce maturation” and the “Geometric means of levels of expression in cells expressing CD83” value ([5]; DCs without cytokines) was 16.48. The “Geometric means of levels of expression in cells expressing CD86” value ([5]; DCs without cytokines) was 13.70, the “Geometric means of levels of expression in cells expressing CD83” value [5, 7] was 19.92 and the “Geometric means of levels of expression in cells expressing CD86” value [5, 7] was 21.92. The “EGFP expression increase compared with scAAV vector-transduced DCs” value [6] was about 20 fold.

In the case of hHGF: human hepatocyte growth factor, the “AAV3 vector-mediated transduction in the presence of hHGF” value (T47D+hHGFR cells; 5 μg/mL hHGF, 2,000 vgs/cell) is reported as “completely blocked”.

For heparin, the “effect on AAV6 vector-mediated transduction of K562 cells” value (shortened to “effect”) (K562 cells) was “could not be inhibited”.

For phospholipase A2, the “effect” value (K562 cells) was “no significant change”.

tunicamycin was tested, and the “effect” value (K562 cells) was “markedly reduced”.
